According to patent US7776890B2, “1H-indazole compounds” (Eisai R&D Management Co., Ltd., priority 2005, dated 2010):

Biological target: T1, Human JNK 3 (Homo sapiens, UniProt P53779)
T1 construct: made in house; host or cells: Escherichia coli
Experiment: Determination of JNK 3 Inhibition
Assay type: biochemical
Conditions: 50% inhibitory concentration on the enzymatic activity of JNK; GST-JNK 3, substrate GST-c-Jun, 3.33 μM of ATP, 30 minutes
Experimental: Human JNK 3 was expressed as a fusion protein (GST-JNK 3) with glutathione S-transferase (GST) in Escherichia coli and was purified using glutathione Sepharose 4B beads. The amino acid sequence 1-169 of c-Jun was […] as a fusion protein (GST-c-Jun) with GST in Escherichia coli, was purified using glutathione Sepharose 4B beads and was used as a substrate. A test compound was diluted with 100% dimethyl sulfoxide into 10 mM and was then further diluted with 10% aqueous dimethyl sulfoxide solution to yield a dilution series. To each well of 96-well OPTI plate (available from Packard) were placed 20 μl of the diluted compound, 30 μl of a substrate solution (1.2 μg of GST-c-Jun, […], 0.2 μCi of [γ-^33P]ATP, 25 mM of HEPES pH=7.5, 10 mM of magnesium acetate, and 3.33 μM of ATP), and 50 μl of an enzyme solution (0.04 μg of GST-JNK 3, 25 mM of HEPES pH=7.5, and 10 mM magnesium acetate) up to 100 μl, and the mixture was allowed to react for 30 minutes. After terminating the reaction by adding 100 μl of a reaction terminator (80 mM ATP, 50 mg/ml glutathione SPA beads (available from Amersham Pharmacia Biotech)), the reaction mixture was shaken for 30 minutes. The mixture was centrifuged at room temperature at 1000×g for 5 minutes, and the emission intensity thereof was determined on a TopCount™ illuminator (available from Packard). The activity is expressed by the 50% inhibitory concentration on the enzymatic activity of JNK, i.e., IC50 (nM).

T1 sequence (P53779 whole entry): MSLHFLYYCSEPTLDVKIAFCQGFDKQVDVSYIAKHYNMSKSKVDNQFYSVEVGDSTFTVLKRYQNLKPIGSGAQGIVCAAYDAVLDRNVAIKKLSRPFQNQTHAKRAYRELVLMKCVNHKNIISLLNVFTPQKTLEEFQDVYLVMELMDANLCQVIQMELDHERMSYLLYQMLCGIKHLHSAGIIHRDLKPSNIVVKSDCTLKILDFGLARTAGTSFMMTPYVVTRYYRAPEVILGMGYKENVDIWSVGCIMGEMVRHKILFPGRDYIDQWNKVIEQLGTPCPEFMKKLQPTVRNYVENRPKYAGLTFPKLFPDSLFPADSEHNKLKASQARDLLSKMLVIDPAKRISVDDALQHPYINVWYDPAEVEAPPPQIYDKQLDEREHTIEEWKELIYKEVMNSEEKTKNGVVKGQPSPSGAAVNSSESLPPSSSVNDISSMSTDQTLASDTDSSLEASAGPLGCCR

Row | SMILES | IC50
1 | O=C(Nc1ccc2[nH]nc(-c3cc4ccccc4o3)c2c1)c1ccco1 [Example I-48, N2-(3-Benzo[b]furan-2-yl-1H-5-indazolyl)-2-furamide] | 109 nM
2 | O=C(Nc1ccc2[nH]nc(-c3cc4ccccc4s3)c2c1)C1CCOC1 (centres unmarked) [Example I-55, N3-(3-Benzo[b]thiophen-2-yl-1H-5-indazolyl)tetrahydro-3-furancarboxamide] | 52 nM
3 | CS(=O)(=O)Nc1ccc2[nH]nc(-c3ccc4ccccc4c3)c2c1 [Example I-94, N-[3-(2-Naphthyl)-1H-5-indazolyl]methanesulfonamide] | 163 nM
4 | O=C(Nc1ccc2[nH]nc(-c3ccc4ccccc4c3)c2c1)C1CCNCC1 [Example I-104, N4-[3-(2-Naphthyl)-1H-5-indazolyl]-4-piperidinecarboxamide] | 55 nM
5 | CC(=O)c1cccc(-c2n[nH]c3ccc(C(=O)N[C@@H](C)C(N)=O)cc23)c1 [Example I-132, N5-[(1S)-2-Amino-1-methyl-2-oxoethyl]-3-(3-acetylphenyl)-1H-5-indazolecarboxamide] | 197 nM
6 | O=C(NCCCN1CCCC1=O)c1ccc2[nH]nc(-c3cc4ccccc4s3)c2c1 [Example I-137, N5-[3-(2-Oxotetrahydro-1H-1-pyrrolyl)propyl]-3-benzo[b]thiophen-2-yl-1H-5-indazolecarboxamide] | 54 nM
7 | O=C(Cc1ccsc1)Nc1ccc2[nH]nc(-c3cn4ccccc4n3)c2c1 [Example I-163, N1-(3-Imidazo[1,2-a]pyridin-2-yl-1H-5-indazolyl)-2-(3-thienyl)acetamide] | 80 nM
8 | C[C@H](NC(=O)c1ccc2[nH]nc(-c3cc4ccccc4s3)c2c1F)C(N)=O [Example II-126] | 143 nM
9 | O=C(Nc1cc2c(-c3ccc4ccccc4c3)n[nH]c2cc1F)C1CC1 [Example II-184, Cyclopropanecarboxylic acid {6-fluoro-3-naphthalen-2-yl-1H-indazol-5-yl}-amide] | 86 nM
10 | O=C(Cc1cccs1)Nc1cc2c(-c3ccc4ccccc4c3)n[nH]c2cc1F [Example II-189, N-(6-Fluoro-3-naphthalen-2-yl-1H-indazol-5-yl)-2-thiophen-2-yl-acetamide] | 194 nM
11 | CS(=O)(=O)Nc1cc2c(-c3cc4ccccc4s3)n[nH]c2cc1F [Example II-218, N-(3-Benzo[b]thiophen-2-yl-6-fluoro-1H-indazol-5-yl)-methanesulfonamide] | 215 nM
12 | O=C(N[C@@H]1CCOC1=O)c1cc(F)c2[nH]nc(-c3ccc4ccccc4c3)c2c1 [Example II-259, 7-Fluoro-3-naphthalen-2-yl-1H-indazole-5-carboxylic acid [(3R)-2-oxo-tetrahydrofuran-3-yl]amide] | 148 nM
13 | CCCOc1c(C(=O)N[C@H](CO)C(C)C)ccc2[nH]nc(-c3cc4ccccc4o3)c12 [Example II-281, 3-Benzo[b]furan-2-yl-4-propoxy-1H-indazole-5-carboxylic acid ((1S)-1-hydroxymethyl-2-methyl-propyl)-amide] | 84 nM
14 | O=C(Cc1ccsc1)Nc1cc(F)c2[nH]nc(-c3cccc(F)c3)c2c1 [Example II-288, N-[7-Fluoro-3-(3-fluorophenyl)-1H-indazol-5-yl]-2-thiophen-3-ylacetamide] | 71 nM

Second part, the molecule after the results:

Row | IC50 | SMILES
15 | 51 nM | O=C(Cc1cccs1)Nc1ccc2[nH]nc(-c3cccc(F)c3)c2c1 [Example I-16, N1-[3-(3-Fluorophenyl)-1H-5-indazolyl]-2-(2-thienyl)acetamide]
16 | 113 nM | O=C(c1ccccc1)c1ccc2[nH]nc(-c3cccc(F)c3)c2c1 [Example I-26, [3-(3-Fluorophenyl)-1H-5-indazolyl](phenyl)methanone]
17 | 221 nM | O=C(NC1CC1)c1ccc2[nH]nc(-c3cccc(F)c3)c2c1 [Example I-143, N5-Cyclopropyl-3-(3-fluorophenyl)-1H-5-indazolecarboxamide]
18 | 100 nM | COc1c(C(=O)NCc2ccco2)ccc2[nH]nc(-c3cccc(F)c3)c12 [Example II-5, 3-(3-Fluoro-phenyl)-4-methoxy-1H-indazole-5-carboxylic acid (furan-2-ylmethyl)-amide]
19 | 137 nM | COc1c(C(=O)NCC2CC2)ccc2[nH]nc(-c3cc4ccccc4o3)c12 [Example II-93, 3-Benzo[b]furan-2-yl-4-methoxy-1H-indazole-5-carboxylic acid cyclopropylmethyl-amide]
20 | 143 nM | COc1cccc(C(=O)NCc2cc3c(-c4ccc5ccccc5c4)n[nH]c3cc2F)c1 [Example II-208, N-{6-Fluoro-3-naphthalen-2-yl-1H-indazol-5-ylmethyl}-3-methoxy-benzamide]
